Measurements taken from ChEMBL document CHEMBL1201862, “PubChem BioAssay data set” (2004).
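All cell lines were grown in 96-well plates and treated with compound for 48 hours. At the GI50, growth is halved.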 Activity calls are given as the source filed them. No stated cut-off is given here; in the data, active = GI50 up to about 1.1 µM and inactive = higher.

Assays:
Assay in all cases: NCI anticancer screen, dose series, 48 h
HCC 2998 = tested on: HCC 2998
PC-3 = tested on: PC-3
MCF7 = tested on: MCF7
OVCAR-4 = tested on: OVCAR-4
SK-MEL-28 = tested on: SK-MEL-28
IGROV-1 = tested on: IGROV-1
HL-60 = tested on: HL-60
M14 = tested on: M14
CAKI-1 = tested on: CAKI-1
MOLT-4 = tested on: MOLT-4
COLO 205 = tested on: COLO 205
MDA-MB-231 = tested on: MDA-MB-231
ACHN = tested on: ACHN
TK-10 = tested on: TK-10
SNB-19 = tested on: SNB-19
SNB-75 = tested on: SNB-75
A549 = tested on: A549
NCI-H23 = tested on: NCI-H23
SK-MEL-5 = tested on: SK-MEL-5
KM12 = tested on: KM12
Hs-578T = tested on: Hs-578T
OVCAR-8 = tested on: OVCAR-8
NCI/ADR-RES = tested on: NCI/ADR-RES
OVCAR-3 = tested on: OVCAR-3
DU-145 = tested on: DU-145
NCI-H226 = tested on: NCI-H226
SW-620 = tested on: SW-620
EKVX = tested on: EKVX
MDA-N = tested on: MDA-N
HOP-92 = tested on: HOP-92
NCI-H460 = tested on: NCI-H460
CCRF-CEM = tested on: CCRF-CEM
SF-539 = tested on: SF-539
HCT-15 = tested on: HCT-15
UACC-257 = tested on: UACC-257
A498 = tested on: A498
MDA-MB-435 = tested on: MDA-MB-435
UACC-62 = tested on: UACC-62
BT-549 = tested on: BT-549
HT-29 = tested on: HT-29
T47D = tested on: T47D
U-251 = tested on: U-251
SK-MEL-2 = tested on: SK-MEL-2
K562 = tested on: K562
SF-268 = tested on: SF-268
SF-295 = tested on: SF-295
SK-OV-3 = tested on: SK-OV-3
RPMI-8226 = tested on: RPMI-8226
OVCAR-5 = tested on: OVCAR-5
Malme-3M = tested on: Malme-3M
SN12C = tested on: SN12C
HCT-116 = tested on: HCT-116
786-0 = tested on: 786-0
UO-31 = tested on: UO-31
LOX IMVI = tested on: LOX IMVI
NCI-H522 = tested on: NCI-H522
RXF 393 = tested on: RXF 393
HOP-62 = tested on: HOP-62
SR = tested on: SR

`CCCC[C@H]1CCN2C[C@@H](O)[C@@H](O)[C@H]2[C@@H]1O` was tested, and the GI50 (HCC 2998) was > 100 µM (inactive), the GI50 (PC-3) was > 100 µM (inactive) and the GI50 (MCF7) was > 100 µM (inactive). For the same compound, the GI50 (OVCAR-4) was > 100 µM (inactive), the GI50 (SK-MEL-28) was > 100 µM (inactive) and the GI50 (IGROV-1) was > 100 µM (inactive). For the same compound, the GI50 (HL-60) was > 100 µM (inactive), the GI50 (M14) was > 100 µM (inactive) and the GI50 (CAKI-1) was > 100 µM (inactive). The GI50 (MOLT-4) was > 100 µM (inactive), the GI50 (COLO 205) was > 100 µM (inactive) and the GI50 (MDA-MB-231) was > 100 µM (inactive). The GI50 (ACHN) was > 100 µM (inactive), the GI50 (TK-10) was > 100 µM (inactive) and the GI50 (SNB-19) was > 100 µM (inactive). The GI50 (SNB-75) was > 100 µM (inactive), the GI50 (A549) was > 100 µM (inactive) and the GI50 (NCI-H23) was > 100 µM (inactive). For the same compound, the GI50 (SK-MEL-5) was > 100 µM (inactive), the GI50 (KM12) was > 100 µM (inactive) and the GI50 (Hs-578T) was > 100 µM (inactive). The GI50 (OVCAR-8) was > 100 µM (inactive), the GI50 (NCI/ADR-RES) was > 100 µM (inactive) and the GI50 (OVCAR-3) was > 100 µM (inactive). For the same compound, the GI50 (DU-145) was > 100 µM (inactive), the GI50 (NCI-H226) was > 100 µM (inactive) and the GI50 (SW-620) was > 100 µM (inactive). For the same compound, the GI50 (EKVX) was > 100 µM (inactive), the GI50 (MDA-N) was > 100 µM (inactive) and the GI50 (HOP-92) was > 100 µM (inactive). The GI50 (NCI-H460) was > 100 µM (inactive), the GI50 (CCRF-CEM) was > 100 µM (inactive) and the GI50 (SF-539) was > 100 µM (inactive). The GI50 (HCT-15) was over 100 µM, the GI50 (UACC-257) was > 100 µM (inactive) and the GI50 (A498) was > 100 µM (inactive). The GI50 (MDA-MB-435) was > 100 µM (inactive), the GI50 (UACC-62) was > 100 µM (inactive) and the GI50 (BT-549) was > 100 µM (inactive). The GI50 (HT-29) was > 100 µM (inactive), the GI50 (T47D) was > 100 µM (inactive) and the GI50 (U-251) was > 100 µM (inactive). The GI50 (SK-MEL-2) was > 100 µM (inactive), the GI50 (K562) was > 100 µM (inactive) and the GI50 (SF-268) was > 100 µM (inactive). The GI50 (SF-295) was > 100 µM (inactive), the GI50 (SK-OV-3) was > 100 µM (inactive) and the GI50 (RPMI-8226) was > 100 µM (inactive). The GI50 (OVCAR-5) was > 100 µM (inactive), the GI50 (Malme-3M) was > 100 µM (inactive) and the GI50 (SN12C) was > 100 µM (inactive). For the same compound, the GI50 (HCT-116) was > 100 µM (inactive), the GI50 (786-0) was > 100 µM (inactive) and the GI50 (UO-31) was > 100 µM (inactive). The GI50 (LOX IMVI) was > 100 µM (inactive) and the GI50 (NCI-H522) was > 100 µM (inactive).
For `NNC(=S)N/N=C(/C(=O)Nc1ccc(Cl)c(Cl)c1)C(C1OC(=O)c2ccccc21)[N+](=O)[O-]` (configuration not stated), the GI50 (RXF 393) was > 100 µM (inactive), the GI50 (HCC 2998) was > 100 µM (inactive) and the GI50 (PC-3) was > 100 µM (inactive). For the same compound, the GI50 (MCF7) was > 100 µM (inactive), the GI50 (OVCAR-4) was > 100 µM (inactive) and the GI50 (SK-MEL-28) was > 100 µM (inactive). For the same compound, the GI50 (IGROV-1) was 54.5 µM (inactive), the GI50 (HL-60) was 19.9 µM (inactive) and the GI50 (M14) was > 100 µM (inactive). For the same compound, the GI50 (CAKI-1) was > 100 µM (inactive), the GI50 (MOLT-4) was > 100 µM (inactive) and the GI50 (MDA-MB-231) was > 100 µM (inactive). For the same compound, the GI50 (ACHN) was > 100 µM (inactive), the GI50 (TK-10) was > 100 µM (inactive) and the GI50 (HOP-62) was > 100 µM (inactive). For the same compound, the GI50 (SNB-75) was > 100 µM (inactive), the GI50 (A549) was > 100 µM (inactive) and the GI50 (NCI-H23) was > 100 µM (inactive). The GI50 (SK-MEL-5) was > 100 µM (inactive), the GI50 (KM12) was > 100 µM (inactive) and the GI50 (Hs-578T) was > 100 µM (inactive). For the same compound, the GI50 (OVCAR-8) was > 100 µM (inactive), the GI50 (NCI/ADR-RES) was > 100 µM (inactive) and the GI50 (OVCAR-3) was > 100 µM (inactive). The GI50 (NCI-H226) was > 100 µM (inactive), the GI50 (SW-620) was > 100 µM (inactive) and the GI50 (EKVX) was > 100 µM (inactive). For the same compound, the GI50 (MDA-N) was > 100 µM (inactive), the GI50 (HOP-92) was 86.9 µM (inactive) and the GI50 (NCI-H460) was > 100 µM (inactive). The GI50 (CCRF-CEM) was 52.7 µM (inactive), the GI50 (SF-539) was > 100 µM (inactive) and the GI50 (HCT-15) was over 100 µM. For the same compound, the GI50 (UACC-257) was > 100 µM (inactive), the GI50 (A498) was > 100 µM (inactive) and the GI50 (MDA-MB-435) was > 100 µM (inactive). For the same compound, the GI50 (UACC-62) was > 100 µM (inactive), the GI50 (BT-549) was > 100 µM (inactive) and the GI50 (HT-29) was > 100 µM (inactive). The GI50 (T47D) was > 100 µM (inactive), the GI50 (U-251) was > 100 µM (inactive) and the GI50 (SR) was > 10 µM (inactive). The GI50 (SK-MEL-2) was > 100 µM (inactive), the GI50 (K562) was > 100 µM (inactive) and the GI50 (SF-268) was > 100 µM (inactive). The GI50 (SF-295) was > 100 µM (inactive), the GI50 (SK-OV-3) was > 100 µM (inactive) and the GI50 (RPMI-8226) was > 100 µM (inactive). The GI50 (OVCAR-5) was > 100 µM (inactive), the GI50 (Malme-3M) was > 100 µM (inactive) and the GI50 (SN12C) was > 100 µM (inactive). For the same compound, the GI50 (HCT-116) was > 100 µM (inactive), the GI50 (786-0) was > 100 µM (inactive) and the GI50 (UO-31) was > 100 µM (inactive). The GI50 (LOX IMVI) was > 100 µM (inactive) and the GI50 (NCI-H522) was > 100 µM (inactive).
